Earlier results in patent publication US7718380B2 (Abbott Laboratories, priority 2005, dated 2010).

solubility in aqueous solutions: limited solubility
Compound: C=CC[C@@H]1/C=C(\C)C[C@H](C)C[C@H](OC)[C@H]2O[C@@](O)(C(=O)C(=O)N3CCCC[C@H]3C(=O)O[C@H](/C(C)=C/[C@@H]3CC[C@@H](O)[C@H](OC)C3)[C@H](C)[C@@H](O)CC1=O)[C@H](C)C[C@@H]2OC [Tacrolimus]
